This test concerns the target G-protein coupled receptor 84 (Homo sapiens, UniProt Q9NQS5).

The source of these data is ChEMBL document CHEMBL5500419, “Discovery of GPR84 Fluorogenic Probes Based on a Novel Antagonist for GPR84 Bioimaging” (J Med Chem, 2024).

For orientation: IC50 means the midpoint of a concentration-inhibition curve.

Structures are written as SMILES.

Chain of G-protein coupled receptor 84 (Q9NQS5 whole entry): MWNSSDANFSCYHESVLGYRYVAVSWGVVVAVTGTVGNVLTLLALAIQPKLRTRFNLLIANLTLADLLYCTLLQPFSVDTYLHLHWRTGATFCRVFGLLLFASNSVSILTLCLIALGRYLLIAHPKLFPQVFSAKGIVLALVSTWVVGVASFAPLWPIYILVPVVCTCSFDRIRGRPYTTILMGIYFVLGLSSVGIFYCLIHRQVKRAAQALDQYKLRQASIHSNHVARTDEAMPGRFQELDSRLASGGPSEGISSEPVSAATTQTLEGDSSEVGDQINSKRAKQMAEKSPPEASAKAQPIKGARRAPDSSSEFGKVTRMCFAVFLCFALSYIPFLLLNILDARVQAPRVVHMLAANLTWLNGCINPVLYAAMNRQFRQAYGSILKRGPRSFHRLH
Description: Antagonist activity at human GPR84 expressed in HEK293 cells co-expressing Galpha16 assessed as inhibition of 6-OAU-induced calcium response

Consider `Cc1cc2ccccc2c2c1OP(=O)(O)Oc1c(C)cc3ccccc3c1-2`, for which the IC50 is greater than 100 µM.
